Test results from PubChem BioAssay AID180 (DTP/NCI, 2004).
“And” between values parts separate entries of the source, which are not always exact repeats. Equal entries are not always repeated.

System: BDF1 mice, Adenocarcinoma 755 s.c., tumor weight T/C
Assay: NCI In Vivo Anticancer Drug Screen. Data for tumor model Adenocarcinoma 755 (subcutaneous) in B6D2F1 (BDF1) mice
Conditions: endpoint: mean tumor weight, schedule: Q01DX011 (ip), higher = larger tumour
Method in brief: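 Transplantable tumor implanted; mice dosed with compound or vehicle; survival or tumor size recorded; ratio of treated to vehicle control reported.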

[1] = dose: 31.0 mg/kg/injection, vehicle: methylcellulose (MC)
[2] = dose: 62.0 mg/kg/injection, vehicle: methylcellulose (MC)
[3] = dose: 15.0 mg/kg/injection, vehicle: methylcellulose (MC)
[4] = dose: 125.0 mg/kg/injection, vehicle: methylcellulose (MC)
[5] = dose: 250.0 mg/kg/injection, vehicle: methylcellulose (MC)
[6] = dose: 10.0 mg/kg/injection, vehicle: methylcellulose (MC)
[7] = dose: 20.0 mg/kg/injection, vehicle: methylcellulose (MC)
[8] = dose: 57.0 mg/kg/injection, vehicle: methylcellulose (MC)
[9] = dose: 113.0 mg/kg/injection, vehicle: methylcellulose (MC)
[10] = dose: 16.0 mg/kg/injection, vehicle: carboxymethylcellulose (CMC)
[11] = dose: 25.0 mg/kg/injection, vehicle: methylcellulose (MC)
[12] = dose: 75.0 mg/kg/injection, vehicle: methylcellulose (MC)
[13] = dose: 5.0 mg/kg/injection, vehicle: carboxymethylcellulose (CMC)
[14] = dose: 10.0 mg/kg/injection, vehicle: carboxymethylcellulose (CMC)
[15] = dose: 40.0 mg/kg/injection, vehicle: carboxymethylcellulose (CMC)
[16] = dose: 20.0 mg/kg/injection, vehicle: carboxymethylcellulose (CMC)
[17] = dose: 80.0 mg/kg/injection, vehicle: carboxymethylcellulose (CMC)

O=[N+]([O-])c1ccc(O)c([N+](=O)[O-])c1
T/C (dose: 3.35 mg/kg/injection, vehicle: carboxymethylcellulose (CMC)): 60 % of control | T/C (dose: 3.92 mg/kg/injection, vehicle: carboxymethylcellulose (CMC)): 57 % of control | T/C (dose: 6.7 mg/kg/injection, vehicle: carboxymethylcellulose (CMC)): 92 % of control | T/C (dose: 7.85 mg/kg/injection, vehicle: carboxymethylcellulose (CMC)): 54 % of control | T/C (dose: 13.4 mg/kg/injection, vehicle: carboxymethylcellulose (CMC)): 64 % of control | T/C (dose: 15.7 mg/kg/injection, vehicle: carboxymethylcellulose (CMC)): 53 % of control | T/C (dose: 26.8 mg/kg/injection, vehicle: carboxymethylcellulose (CMC)): 91 % of control | T/C (dose: 31.4 mg/kg/injection, vehicle: carboxymethylcellulose (CMC)): 78 % of control

CCCCN=NNc1nc[nH]c1C(N)=O
T/C (dose: 16.0 mg/kg/injection, vehicle: methylcellulose (MC)): 124 % of control | T/C [1]: 75 % of control | T/C [2]: 79 % of control

N#[N+]c1cn(C2CC(O)C(CO)O2)c(=O)[nH]c1=O (stereo not drawn)
T/C (dose: 30.0 mg/kg/injection, vehicle: saline): 106 % of control | T/C (dose: 60.0 mg/kg/injection, vehicle: saline): 118 % of control | T/C (dose: 120.0 mg/kg/injection, vehicle: saline): 94 % of control | T/C (dose: 240.0 mg/kg/injection, vehicle: saline): 47 % of control

CCCn1cnc2c(SCc3ccccc3)nc(N)nc21
T/C (dose: 7.81 mg/kg/injection, vehicle: methylcellulose (MC)): 43 % of control | T/C (dose: 15.62 mg/kg/injection, vehicle: methylcellulose (MC)): 9 % of control | T/C (dose: 31.25 mg/kg/injection, vehicle: methylcellulose (MC)): 37 % of control | T/C (dose: 62.5 mg/kg/injection, vehicle: methylcellulose (MC)): 1 % of control

Cn1ncc2c([N+](C)(C)C)ncnc21
T/C (dose: 25.0 mg/kg/injection, vehicle: saline): 82 % of control | T/C (dose: 75.0 mg/kg/injection, vehicle: saline): 111 % of control

Cc1cnc(SCc2ccccc2)[nH]c1=O
T/C [3]: 103 % of control | T/C [1]: 104 % of control | T/C [4]: 92 % of control | T/C [5]: 77 % of control

C=CC1CN2CCC1CC2C(O)c1ccnc2ccc(OC)cc12 (stereo not drawn)
T/C (dose: 28.96 mg/kg/injection, vehicle: carboxymethylcellulose (CMC)): 109 % of control | T/C (dose: 57.93 mg/kg/injection, vehicle: carboxymethylcellulose (CMC)): 121 % of control | T/C (dose: 92.68 mg/kg/injection, vehicle: carboxymethylcellulose (CMC)): 70 % of control | T/C (dose: 115.85 mg/kg/injection, vehicle: carboxymethylcellulose (CMC)): 76 % of control | T/C [4]: 82 % of control | T/C (dose: 154.46 mg/kg/injection, vehicle: carboxymethylcellulose (CMC)): 86 % of control | T/C (dose: 231.7 mg/kg/injection, vehicle: carboxymethylcellulose (CMC)): 72 % of control | T/C [5]: 91 % of control

CNc1ncnc2c1cnn2C
T/C (dose: 5.0 mg/kg/injection, vehicle: methylcellulose (MC)): 65 % of control | T/C [6]: 55 % of control | T/C [7]: 29 % of control

O=C(CCBr)N1CCCN(C(=O)CCBr)CC1
T/C (dose: 28.0 mg/kg/injection, vehicle: carboxymethylcellulose (CMC)): 85 % of control | T/C (dose: 57.0 mg/kg/injection, vehicle: carboxymethylcellulose (CMC)): 60 % of control | T/C [8]: 58 % of control and 78 % of control | T/C (dose: 113.0 mg/kg/injection, vehicle: carboxymethylcellulose (CMC)): 16 % of control | T/C [9]: 35 % of control

CCn1cnc2ncnc(SCc3ccccc3)c21
T/C [10]: 107 % of control | T/C (dose: 31.0 mg/kg/injection, vehicle: carboxymethylcellulose (CMC)): 89 % of control | T/C (dose: 62.0 mg/kg/injection, vehicle: carboxymethylcellulose (CMC)): 46 % of control

CS(=O)(=O)OCCC(=O)NCCCCCCNC(=O)CCOS(C)(=O)=O
T/C [8]: 117 % of control | T/C [9]: 110 % of control | T/C (dose: 225.0 mg/kg/injection, vehicle: methylcellulose (MC)): 45 % of control

CC1CCCCN1/N=N/c1nc2c([nH]1)c(=O)n(C)c(=O)n2C (stereo not drawn)
T/C [11]: 59 % of control | T/C [12]: 68 % of control

O=CNC(Cc1ccc(N(CCCl)CCCl)cc1)C(=O)O (stereo not drawn)
T/C (dose: 1.25 mg/kg/injection, vehicle: carboxymethylcellulose (CMC)): 94 % of control | T/C (dose: 1.25 mg/kg/injection, vehicle: saline): 87 % of control | T/C (dose: 2.5 mg/kg/injection, vehicle: carboxymethylcellulose (CMC)): 54 % of control | T/C (dose: 2.5 mg/kg/injection, vehicle: saline): 91 % of control | T/C [13]: 31 % of control and 50 % of control | T/C (dose: 5.0 mg/kg/injection, vehicle: saline): 71 % of control | T/C [14]: 23 % of control | T/C [6]: 34 % of control | T/C (dose: 10.0 mg/kg/injection, vehicle: saline): 66 % of control | T/C [7]: 34 % of control | T/C [15]: 2 % of control | T/C (dose: 40.0 mg/kg/injection, vehicle: methylcellulose (MC)): 23 % of control | T/C (dose: 80.0 mg/kg/injection, vehicle: methylcellulose (MC)): 4 % of control

CC(C)CCSc1nc(N)nc2nc[nH]c12
T/C (dose: 4.68 mg/kg/injection, vehicle: methylcellulose (MC)): 59 % of control | T/C (dose: 9.37 mg/kg/injection, vehicle: methylcellulose (MC)): 29 % of control | T/C (dose: 18.75 mg/kg/injection, vehicle: methylcellulose (MC)): 21 % of control | T/C (dose: 37.5 mg/kg/injection, vehicle: methylcellulose (MC)): 12 % of control

O=C1CCC(N2C(=O)c3ccccc3C2=O)C(=O)N1 (stereo not drawn)
T/C (dose: 250.0 mg/kg/injection, vehicle: carboxymethylcellulose (CMC)): 48 % of control | T/C (dose: 375.0 mg/kg/injection, vehicle: carboxymethylcellulose (CMC)): 56 % of control

CCc1c(CC(=O)O)c2cc(C)ccc2n1Cc1ccc(Cl)cc1
T/C [16]: 87 % of control | T/C [15]: 119 % of control | T/C [17]: 97 % of control | T/C (dose: 100.0 mg/kg/injection, vehicle: carboxymethylcellulose (CMC)): 37 % of control

CCCCNc1ncnc2c1cnn2C
T/C (dose: 4.0 mg/kg/injection, vehicle: carboxymethylcellulose (CMC)): 96 % of control | T/C (dose: 8.0 mg/kg/injection, vehicle: carboxymethylcellulose (CMC)): 84 % of control | T/C [10]: 52 % of control | T/C (dose: 31.25 mg/kg/injection, vehicle: carboxymethylcellulose (CMC)): 30 % of control | T/C (dose: 32.0 mg/kg/injection, vehicle: carboxymethylcellulose (CMC)): 20 % of control

CCc1c(Cl)nc(N)nc1Nc1ccccc1Br
T/C [3]: 96 % of control | T/C [1]: 101 % of control | T/C [2]: 76 % of control | T/C [5]: 75 % of control

CS(=O)(=O)OCC(=O)N1CCN(C(=O)COS(C)(=O)=O)CC1
T/C [11]: 63 % of control | T/C [12]: 67 % of control

CCOC(=O)C(Cc1ccc(N(CCCl)CCCl)cc1)NC=O (stereo not drawn)
T/C [13]: 75 % of control | T/C [14]: 43 % of control | T/C [16]: 48 % of control | T/C [15]: 3 % of control | T/C [17]: 6 % of control
